Source: patent US9163240B2, “SR-BI mutation as a predictor of low progesterone levels and poor fetal viability during pregnancy” (The Johns Hopkins University, priority 2009, dated 2015)

Key:
HGL5 cells = assay: Progesterone secretion in HGL5 granulosa cells (RIA); assay type: cell-based, human; details: for rescue of impaired progesterone secretion in SR-BI KD cells: SR-BI KD cells incubated with the agent
female knockout mice = details: probucol added in the chow diet; cited from earlier work

Row | SMILES | rescue of impaired progesterone secretion in SR-BI KD cells (HGL5 cells) | also measured
1 | CC(C)CCC(O)[C@@H](C)[C@H]1CC[C@H]2[C@@H]3CC=C4C[C@@H](O)CC[C@]4(C)[C@H]3CC[C@]12C (stereo partly shown) [22-OH cholesterol, 22-hydroxycholesterol] | did not overcome this impairment | 
2 | C=C[C@@]1(C)CC(=O)[C@]2(O)[C@@]3(C)[C@@H](O)CCC(C)(C)[C@@H]3[C@H](O)[C@H](OC(C)=O)[C@@]2(C)O1 [Fo, Forskolin] |  | progesterone secretion higher as compared with DMSO (HGL5 cells; scrambled cells, 24 h, Fo 10 μM, serum 10%, HDL or LDL 50 μg protein/ml, p<0.001): > 2 fold
3 | CCCC(=O)Nc1ncnc2c1ncn2[C@@H]1O[C@@H]2COP(=O)(O)O[C@H]2[C@H]1OC(=O)CCC [dibutryl cAMP] | did not overcome the defect | 
4 | CC(C)(Sc1cc(C(C)(C)C)c(O)c(C(C)(C)C)c1)Sc1cc(C(C)(C)C)c(O)c(C(C)(C)C)c1 [probucol] |  | fertility of SR-BI knockout female mice (female knockout mice): restored
